Test results taken from US20250255929A1, “METHODS FOR REDUCING RISKS ASSOCIATED WITH HEART FAILURE AND FACTORS ASSOCIATED THEREWITH” (Stealth BioTherapeutics Inc., priority 2012, published 2025).
“And” between values parts separate entries of the source, which are not always exact repeats. Equal values may be shown once. Square brackets hold non-standard residues; d marks the D form. Ends that are not written are not given here. Dmt = Cc1cc(O)cc(C)c1C[C@H](N)C(=O)O

Key:
Type in all cases: in vivo
ALCAT1 = ALCAT1 mRNA in LV tissue (real-time PCR), dog model of heart failure; conditions: LV tissue of HF dogs, 3 months, 0.5 mg/kg once daily s.c., n=6; untreated HF increased 3.56-fold vs normal; normalized to GAPDH
Method: (§1) Heart failure was induced in dogs via multiple sequential intracoronary microembolizations as described in Sabbah, et al., Am J Physiol. (1991) 260:H1379-84, herein incorporated by reference in its entirety.
(§2) Twelve dogs were subject to coronary microembolization-induced heart failure (LV ejection fraction ˜30%) as described in Example 1. […] RNA was prepared from LV tissue of all 12 dogs at the end of the treatment phase and from the LV of 6 normal (NL) dogs for comparison. mRNA levels of Taz1, MLCL AT1 and ALCAT1 were determined by real-time PCR. Changes in mRNA expression were expressed as fold changes using the CT Method with normalization to […] (GAPDH) as internal control.

C-reactive protein = test: Plasma C-reactive protein (canine ELISA) in dog model of heart failure; set-up: C-reactive protein concentration, BL, Mean / C-reactive protein concentration, 12 Wk, Mean / C-reactive protein concentration, BL / C-reactive protein concentration, 6 Wk / C-reactive protein concentration, 12 Wk: unit not given here; conditions: for plasma CRP levels (FIG. 1), in words: HF dogs
Method: as §1
Half the dogs were subsequently treated with the mitochondrial peptide; the other half were treated with drug vehicle and served as controls. Peptide treatment was started upon induction of heart failure (HF), defined as left ventricular ejection fraction of approximately 30%. Peripheral venous blood samples were obtained from all dogs at the following time points: 1) when the dogs were normal (baseline, prior to the induction of heart failure); 2) when the dogs were induced into heart failure; 3) at 6 weeks after initiating therapy with the mitochondrial peptide or vehicle (HF+peptide, or HF+vehicle) both administered once daily as subcutaneous injections; and 4) at 12 weeks after initiating therapy with the mitochondrial peptide or vehicle. The daily dose of the peptide was 0.5 mg/kg/day administered […]. Blood samples were drawn on EDTA anticoagulant and were centrifuged at 2,500 RPM and the plasma extracted, aliquoted in 1 ml volumes into crystat tubes and stored at −70° C. until assayed. Once the follow-up was completed in all dogs, the plasma samples were thawed to room temperature and CRP was assayed using a canine specific ELISA kit (ALPCO: Cat #41-CRPCA-E01). The calorimetric method was used to assess the amount of CRP in plasma. CRP concentration was expressed as […].

Taz1 = Taz1 mRNA in LV tissue (real-time PCR), dog model of heart failure; conditions: LV tissue of HF dogs, 3 months, 0.5 mg/kg once daily s.c., n=6; untreated HF decreased 2.25-fold vs normal; normalized to GAPDH
Method: as §1, §2

NT-pro BNP = test: Plasma NT-pro BNP (double antibody sandwich ELISA) in dog model of heart failure; conditions: for plasma NT-pro BNP levels (FIG. 5), in words: HF dogs
Method: Heart failure was induced in dogs via multiple sequential intracoronary microembolizations as described in Sabbah, et al., Am J Physiol. (1991) 260:H1379-84, herein incorporated by reference in its entirety and summarized in Example 1.
Heart failure was induced as described in Example 1. […] Half the dogs were treated with the peptide; the other half were treated with drug vehicle and served as controls. Peptide treatment was started upon induction of heart failure (HF), defined as left ventricular ejection fraction of approximately 30%. The daily dose of the peptide was 0.5 mg/kg/day administered intravenously. Blood samples were drawn on EDTA anticoagulant and were centrifuged at 2,500 RPM and the plasma extracted, aliquoted in 1 ml volumes into crystat tubes and stored at −70° C. until assayed. Once the follow-up was completed in all dogs, the plasma samples were thawed to room temperature and NT-pro BNP was assayed.
Nt-pro BNP (pg/ml) was determined in EDTA-plasma on the principle of the double antibody sandwich Enzyme-linked immunosorbent assay (ELISA). The assay was performed based upon the instructions came along with the assay kit (NT-pro BNP, Kamiya Biomedical Company, Cat #KT-23770). Using standard curves with the help of Software (MasterPlex-2010), the concentration of each biomarker was determined.

[1] = tested on: Mitochondrial ATP to ADP ratio; test: Mitochondrial ATP to ADP ratio (ApoSENSOR assay) in LV mitochondria, dog model of heart failure; conditions: LV mitochondria of HF dogs after three months, 0.5 mg/kg/day, n=5; control 0.38±0.04, p<0.05
Method: (§3) Heart failure was induced as described in Example 1. […] Half the dogs were treated with the peptide (n=5); the other half were treated with drug vehicle and served as controls (n=5). Peptide treatment was started upon induction of heart failure (HF), defined as left ventricular ejection fraction of approximately 30%. The daily dose of the peptide was 0.5 mg/kg/day administered intravenously for three months. Subcutaneous daily injections of saline were administered to the controls. Left ventricular tissue was harvested at the end of the three months of treatment. Mitochondria were isolated from the tissue. MK ATP activation was measured using the thallium-sensitive fluorophore assay kit and quantified in relative fluorescence units (RFU) per mg protein. Mitochondrial ATP to ADP ratio was measured using the bioluminescent ApoSENSOR™ assay kit (Enzo Life Sciences, Farmingdale, NY).

[2] = tested on: reactive oxygen species (ROS); test: Plasma ROS (luminol chemiluminescence) in dog model of heart failure; conditions: for plasma ROS levels (FIG. 2), in words: HF dogs
Method: Heart failure was induced as described in Example 1. […] Half the dogs were treated with the peptide; the other half were treated with drug vehicle and served as controls. Peptide treatment was started upon induction of heart failure (HF), defined as left ventricular ejection fraction of approximately 30%. The daily dose of the peptide was 0.5 mg/kg/day administered intravenously. Blood samples were drawn on EDTA anticoagulant and were centrifuged at 2,500 RPM and the plasma extracted, aliquoted in 1 ml volumes into crystat tubes and stored at −70° C. until assayed. Once the follow-up was completed in all dogs, the plasma samples were thawed to room temperature and ROS was assayed. To assess ROS levels in the plasma, luminol (5-amino-2,3 dihydro-1,4 phtalazindione) was added to the samples. ROS levels were then assessed by chemiluminescence activity.

[3] = tested on: mitochondrial ATP-sensitive potassium channel (mK ATP); test: mK ATP activation in LV mitochondria (thallium-sensitive fluorophore assay), dog model of heart failure; conditions: LV mitochondria of HF dogs after three months, 0.5 mg/kg/day, n=5; control 1372±112, p<0.05
Method: as §1, §3

[4] = plasma, individual HF dogs, 6 weeks after initiating therapy, 0.5 mg/kg/day
[5] = plasma, individual HF dogs, 12 weeks after initiating therapy, 0.5 mg/kg/day
[6] = plasma, peptide group, individual dogs, heart failure prior to initiating therapy

Substance: D-Arg-2′,6′-Dmt-Lys-Phe-NH2 ([dR][Dmt]KF-NH2) [aromatic-cationic peptide]
- ALCAT1 mRNA: reduced increase, fold (ALCAT1): 1.54 fold
- plasma CRP levels (FIG. 1), in words (C-reactive protein; treatment for 12 weeks): normal or near normal levels
- plasma CRP levels (FIG. 1), in words (C-reactive protein; treatment for six weeks): reduced CRP levels
- C-reactive protein concentration, 6 Wk (C-reactive protein; [4]): 1.12
- C-reactive protein concentration, 12 Wk, Mean (C-reactive protein; plasma, mean of 3 HF dogs, 12 weeks after initiating therapy, 0.5 mg/kg/day): 1.42
- C-reactive protein concentration, BL, Mean (C-reactive protein; plasma, peptide group mean (3 dogs), baseline, prior to induction of heart failure (before treatment)): 1.82
- Taz1 mRNA: attenuated decrease, fold (Taz1): 1.23 fold
- plasma NT-pro BNP levels (FIG. 5), in words (NT-pro BNP; treatment for 12 weeks): normal or near normal levels
- plasma NT-pro BNP levels (FIG. 5), in words (NT-pro BNP; treatment for six weeks): reduced NT-pro BNP levels
- NT-pro BNP, 6Wk, AVG (NT-pro BNP; plasma, average of 7 HF dogs, 6 weeks after initiating therapy, 0.5 mg/kg/day): 667 pg/mL
- NT-pro BNP, 12 Wk, AVG (NT-pro BNP; plasma, average of 7 HF dogs, 12 weeks after initiating therapy, 0.5 mg/kg/day): 354 pg/mL
- NT-pro BNP, 6Wk (NT-pro BNP; [4]): 695 pg/ml (2×) and 559 pg/ml and 796 pg/ml and 680 pg/ml and 593 pg/ml and 654 pg/ml
- NT-pro BNP, 12 Wk (NT-pro BNP; [5]): 299 pg/mL and 422 pg/mL and 234 pg/mL and 294 pg/mL and 417 pg/mL and 393 pg/mL and 423 pg/mL
- NT-pro BNP, BL, AVG (NT-pro BNP; plasma, peptide group average (7 dogs), baseline before heart failure (before treatment)): 278 pg/mL
- NT-pro BNP, Pre, AVG (NT-pro BNP; plasma, peptide group average (7 dogs), heart failure prior to initiating therapy): 1128 pg/mL
- NT-pro BNP, BL (NT-pro BNP; plasma, peptide group, individual dogs, baseline before heart failure (before treatment)): 257 pg/mL and 203 pg/mL and 271 pg/mL and 320 pg/mL and 289 pg/mL and 265 pg/mL and 346 pg/mL
- NT-pro BNP, Pre (NT-pro BNP; [6]): 1512 pg/mL and 1223 pg/mL and 1078 pg/mL and 1034 pg/mL and 1018 pg/mL and 1090 pg/mL and 941 pg/mL
- ATP/ADP (mitochondrial ATP to ADP ratio) [1]: 1.16±0.15
- plasma ROS levels (FIG. 2), in words ([2]; treatment for 12 weeks): near normal levels
- plasma ROS levels (FIG. 2), in words ([2]; treatment for six weeks): reduced ROS levels
- Reactive oxygen species concentration, 6 Wk [2, 4]: 18.4 RLU×10^5/ml and 16.6 RLU×10^5/ml and 15.1 RLU×10^5/ml and 23.3 RLU×10^5/ml
- Reactive oxygen species concentration, 12 Wk [2, 5]: 12.4 RLU×10^5/ml (2×) and 8.3 RLU×10^5/ml and 9.0 RLU×10^5/ml and 10.5 RLU×10^5/ml
- Reactive oxygen species concentration, 12 Wk, Mean ([2]; plasma, mean of 5 HF dogs, 12 weeks after initiating therapy, 0.5 mg/kg/day): 10.5 RLU×10^5/ml
- Reactive oxygen species concentration, 6 Wk, Mean ([2]; plasma, mean of HF dogs, 6 weeks after initiating therapy, 0.5 mg/kg/day): 18.4 RLU×10^5/ml
- Reactive oxygen species concentration, BL, Mean ([2]; plasma, peptide group mean (5 dogs), baseline (before HF and treatment)): 5.3 RLU×10^5/ml
- Reactive oxygen species concentration, PRE, Mean ([2]; plasma, peptide group mean, heart failure prior to initiating therapy): 20.7 RLU×10^5/ml
- Reactive oxygen species concentration, BL ([2]; plasma, peptide group, individual dogs, baseline (before HF and treatment)): 5.5 RLU×10^5/ml and 3.9 RLU×10^5/ml and 6.8 RLU×10^5/ml and 5.7 RLU×10^5/ml and 4.7 RLU×10^5/ml
- Reactive oxygen species concentration, PRE [2, 6]: 23.6 RLU×10^5/ml and 18.5 RLU×10^5/ml and 14.6 RLU×10^5/ml and 26.0 RLU×10^5/ml
- activation of mK ATP [3]: 2775±254 relative fluorescence units (R
